The values below come from patent US20230117324A1, “OXAZINE MONOACYLGLYCEROL LIPASE (MAGL) INHIBITORS” (Hoffmann-La Roche Inc., priority 2018, published 2023).

Structures are written as SMILES.

The target in this assay is T1, MAGL (recombinant wild-type) (Homo sapiens, UniProt Q99685).
T1 sequence (Q99685 1-303): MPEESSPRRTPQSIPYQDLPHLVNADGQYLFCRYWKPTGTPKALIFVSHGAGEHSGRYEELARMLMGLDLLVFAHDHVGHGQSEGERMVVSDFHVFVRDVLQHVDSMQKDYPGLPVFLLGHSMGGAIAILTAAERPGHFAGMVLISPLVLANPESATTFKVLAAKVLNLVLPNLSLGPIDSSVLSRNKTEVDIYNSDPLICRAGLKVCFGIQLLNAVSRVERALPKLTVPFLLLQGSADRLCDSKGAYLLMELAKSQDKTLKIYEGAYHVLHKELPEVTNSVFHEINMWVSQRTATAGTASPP
Kind of assay: MAGL inhibition, 4-NPA assay (hydrolysis of 4-nitrophenylacetate, absorbance at 405 nm). The note with it: 4-NPA assay (footnote [a]: values not marked [b]). The assay is classed as biochemical. The protocol:
Compounds were profiled for MAGL inhibitory activity by measuring the enzymatic activity of MAGL by following the hydrolysis of 4-nitrophenylacetate resulting in 4-nitrophenol, which absorbs at 405-412 nm (G. G. Muccioli, G. Labar, D. M. Lambert, Chem. Bio. Chem. 2008, 9, 2704-2710). This assay is hereinafter abbreviated “4-NPA assay”.
The assay was carried out in 384 well assay plates (black with clear bottom, non-binding surface treated, Corning Ref. 3655) in a total volume of 40 μL. Compound dilutions were made in 100% DMSO (VWR Chemicals 23500.297) in a polypropylene plate in 3-fold dilution steps to give a final concentration range in the assay from 25 μM to 1.7 nM. 1 μL compound dilutions (100% DMSO) were added to 19 μL MAGL (recombinant wild-type) in assay buffer (50 mM TRIS (GIBCO, 15567-027), 1 mM EDTA (Fluka, 03690-100 mL)). The plate was shaked for 1 min at 2000 rpm (Variomag Teleshake) and then incubated for 15 min at RT. To start the reaction, 20 μL 4-Nitrophenlyacetate (Sigma N-8130) in assay buffer with 6% EtOH was added. The final concentrations in the assay were 1 nM MAGL and 300 μM 4-Nitrophenylacetate. After shaking (1 min, 2000 rpm) and 5 min incubation at RT, the absorbance at 405 nm was measured for a first time (Molecular Devices, SpectraMax Paradigm). A second measurement was then done after incubation for 80 min at RT. From the two measurements, the slope was calculated by subtracting the first from the second measurement.
Take `O=C1CO[C@H]2CCN(C(=O)N3CCN(C(c4ccc(F)cc4)c4ccc(F)cc4)CC3)C[C@H]2N1` (relative stereo) [Example 11, (+)-cis-6-(4-(bis(4-Fluorophenyl)methyl)piperazine-1-carbonyl)hexahydro-2H-pyrido[4,3-b][1,4]oxazin-3(4H)-one]: the IC50 turned out to be 8 nM.

For the molecule `Cn1cc(C2CCN(C(=O)N3CC[C@@H]4OCC(=O)N[C@@H]4C3)CC2)c2cc(Cl)ccc21` (racemic) [Example 3, rac-(4aR,8aS)-6-(4-(5-Chloro-1-methyl-1H-indol-3-yl)piperidine-1-carbonyl)hexahydro-2H-pyrido[4,3-b][1,4]oxazin-3(4H)-one], the IC50 came out at 3 nM.

In the case of `O=C1CO[C@H]2CCN(C(=O)N3CCC(C(c4ccc(F)cc4)c4ccc(F)cc4)CC3)C[C@H]2N1` (single isomer, unassigned) [Example 21, (+)-or (−)-cis-6-(4-(bis(4-Fluorophenyl)methyl)piperidine-1-carbonyl)hexahydro-2H-pyrido[4,3-b][1,4]oxazin-3(4H)-one], the IC50 amounted to 1 nM.

For the molecule `COc1cncc(C2CCN(C(=O)N3CC[C@@H]4OCC(=O)N[C@@H]4C3)CC2)c1` (single isomer, unassigned) [Example 35, (+) or (−)-cis-6-(4-(5-Methoxypyridin-3-yl)piperidine-1-carbonyl)hexahydro-2H-pyrido[4,3-b][1,4]oxazin-3(4H)-one], the IC50 was 2400 nM.

With `Cc1cccc(C(c2ccccc2)C2CCN(C(=O)N3CC[C@@H]4OCC(=O)N[C@@H]4C3)CC2)c1` (single isomer, unassigned) [Example 80, (4aR,8aS)-6-[4-[(S or R)-m-Tolyl(phenyl)methyl]piperidine-1-carbonyl]-4,4a,5,7,8,8a-hexahydropyrido[4,3-b][1,4]oxazin-3-one], the concentration for half-maximal inhibition (IC50) amounted to 0.4 nM.

With `O=C1CO[C@H]2CCN(C(=O)N3CCN([C@H](c4ccccc4)c4ccc(Cl)cc4)CC3)C[C@H]2N1` (racemic) [Example 10, rac-(4aR,8aS)-6-(4-(rac-(4-Chlorophenyl)(phenyl)methyl)piperazine-1-carbonyl)hexahydro-2H-pyrido[4,3-b][1,4]oxazin-3(4H)-one], the IC50 worked out at 5 nM.

With `O=C1CO[C@H]2CCN(C(=O)N3CCC(c4cn(CC5COC5)c5ccc(Cl)cc45)CC3)C[C@H]2N1` (single isomer, unassigned) [Example 23, (+)-or (−)-cis-6-(4-(5-Chloro-1-(oxetan-3-ylmethyl)-1H-indol-3-yl)piperidine-1-carbonyl)hexahydro-2H-pyrido[4,3-b][1,4]oxazin-3(4H)-one], the IC50 was determined as 3 nM.

As to `O=C1CO[C@H]2CCN(C(=O)N3CCC(C(F)(F)c4ccc(F)cc4Cl)CC3)C[C@H]2N1` (single isomer, unassigned) [Example 39, (+) or (−)-cis-6-(4-((2-Chloro-4-fluorophenyl)difluoromethyl)piperidine-1-carbonyl)hexahydro-2H-pyrido[4,3-b][1,4]oxazin-3(4H)-one], the IC50 amounted to 21 nM.

Turning to `COCCC(c1ccc(F)cc1)C1CCN(C(=O)N2CC[C@@H]3OCC(=O)N[C@@H]3C2)CC1` (mixture of isomers) [Example 6, rac-(4aR,8aS)-6-(4-(1-(4-Fluorophenyl)-3-methoxypropyl)piperidine-1-carbonyl)hexahydro-2H-pyrido[4,3-b][1,4]oxazin-3(4H)-one], the IC50 amounted to 15 nM.

For `O=C1CO[C@H]2CCN(C(=O)N3CCC(C(CCO)c4ccc(F)cc4)CC3)C[C@H]2N1` (single isomer, unassigned; (+)) [Example 31, (+)-(4aR,8aS)-6-(4-((R or S)-1-(4-Fluorophenyl)-3-hydroxypropyl)piperidine-1-carbonyl)hexahydro-2H-pyrido[4,3-b][1,4]oxazin-3(4H)-one], the IC50 was determined as 17 nM.

Consider `O=C1CO[C@H]2CCN(C(=O)N3CCN(c4c[nH]c5ccc(Cl)cc45)CC3)C[C@H]2N1` (racemic) [Example 14, rac-(4aR,8aS)-6-(4-(5-Chloro-1H-indol-3-yl)piperazine-1-carbonyl)hexahydro-2H-pyrido[4,3-b][1,4]oxazin-3(4H)-one], for which the IC50 came out at 133 nM.

With `O=C1CO[C@H]2CCN(C(=O)N3CCC(c4c[nH]c5cc(F)ccc45)CC3)C[C@H]2N1` (racemic) [Example 7, rac-(4aR,8aS)-6-[4-(6-Fluoro-1H-indol-3-yl)piperidine-1-carbonyl]-4,4a,5,7,8,8a-hexahydropyrido[4,3-b][1,4]oxazin-3-one], the IC50 stood at 43 nM.

On to `C[C@@H](Oc1ccc(F)cc1Cl)C1CCN(C(=O)N2CC[C@@H]3OCC(=O)N[C@@H]3C2)CC1` (single isomer, unassigned) [Example 34, (+) or (−)-cis-6-(4-((R or S)-1-(2-Chloro-4-fluorophenoxy)ethyl)piperidine-1-carbonyl)hexahydro-2H-pyrido[4,3-b][1,4]oxazin-3(4H)-one], for which the IC50 was determined as 1 nM.

For `C[C@H](Oc1ccc(F)cc1Cl)C1CCN(C(=O)N2CC[C@@H]3OCC(=O)N[C@@H]3C2)CC1` (single isomer, unassigned) [Example 33, (+) or (−)-cis-6-(4-((S or R)-1-(2-Chloro-4-fluorophenoxy)ethyl)piperidine-1-carbonyl)hexahydro-2H-pyrido[4,3-b][1,4]oxazin-3(4H)-one], the IC50 was 51 nM.

For `O=C1CO[C@H]2CCN(C(=O)N3CCC(c4cn(CC5CC5)c5ccc(Cl)cc45)CC3)C[C@H]2N1` (racemic) [Example 2, rac-(4aR,8aS)-6-(4-(5-Chloro-1-(cyclopropylmethyl)-1H-indol-3-yl)piperidine-1-carbonyl)hexahydro-2H-pyrido[4,3-b][1,4]oxazin-3(4H)-one], the IC50 amounted to 2 nM.

Consider `O=C1CO[C@@H]2CCN(C(=O)N3CCN([C@@H](c4ccccc4)c4ccc(F)cc4)CC3)C[C@@H]2N1` (racemic) [Example 17, rac-(4aR,8aS)-6-[4-[rac-(4-Fluorophenyl)-phenylmethyl]piperazine-1-carbonyl]-4,4a,5,7,8,8a-hexahydropyrido[4,3-b][1,4]oxazin-3-one], for which the concentration for half-maximal inhibition (IC50) turned out to be 6 nM.

With `O=C1CO[C@H]2CCN(C(=O)N3CCC(C(F)(F)c4ccc(C(F)(F)F)cc4)CC3)C[C@H]2N1` [Example 30, (4aR,8aS)-6-(4-(Difluoro(4-(trifluoromethyl)phenyl)methyl)piperidine-1-carbonyl)hexahydro-2H-pyrido[4,3-b][1,4]oxazin-3(4H)-one], the IC50 amounted to 25 nM.

With `O=C1CO[C@H]2CCN(C(=O)N3CCC(c4c[nH]c5cc(F)ccc45)CC3)C[C@H]2N1` (relative stereo) [Example 5, (+)-cis-6-[4-(6-Fluoro-1H-indol-3-yl)piperidine-1-carbonyl]-4,4a,5,7,8,8a-hexahydropyrido[4,3-b][1,4]oxazin-3-one], the IC50 was 14 nM.

Take `O=C1CO[C@H]2CCN(C(=O)N3CCC(c4cn(C5COC5)c5ccc(Cl)cc45)CC3)C[C@H]2N1` (relative stereo) [Example 22, (+)- or (−)-cis-6-(4-(5-Chloro-1-(oxetan-3-yl)-1H-indol-3-yl)piperidine-1-carbonyl)hexahydro-2H-pyrido[4,3-b][1,4]oxazin-3(4H)-one]: the IC50 turned out to be 2 nM.

As for `CC(C)(C)[Si](C)(C)OCCn1cc(C2CCN(C(=O)N3CC[C@@H]4OCC(=O)N[C@@H]4C3)CC2)c2cc(Cl)ccc21` (single isomer, unassigned) [Example 24, (+)-or (−)-cis-6-(4-(1-(2-((tert-Butyldimethylsilyl)oxy)ethyl)-5-chloro-1H-indol-3-yl)piperidine-1-carbonyl)hexahydro-2H-pyrido[4,3-b][1,4]oxazin-3(4H)-one], the IC50 is 0.7 nM.

For `O=C1CO[C@H]2CCN(C(=O)N3CCC(c4cn(CCO)c5ccc(Cl)cc45)CC3)C[C@H]2N1` (single isomer, unassigned) [Example 25, (+)- or (−)-cis-6-(4-(5-Chloro-1-(2-hydroxyethyl)-1H-indol-3-yl)piperidine-1-carbonyl)hexahydro-2H-pyrido[4,3-b][1,4]oxazin-3(4H)-one], the concentration for half-maximal inhibition (IC50) was determined as 2 nM.

As for `O=C1CO[C@H]2CCN(C(=O)N3CCC(c4noc5ccc(F)cc45)CC3)C[C@H]2N1` (racemic) [Example 9, rac-(4aR,8aS)-6-(4-(5-Fluorobenzo[d]isoxazol-3-yl)piperidine-1-carbonyl)hexahydro-2H-pyrido[4,3-b][1,4]oxazin-3(4H)-one], the IC50 turned out to be 644 nM.

Broadly, the IC50 is the concentration at which inhibition is half-maximal.
